Several values for one entry are separate records, joined by “and”; a condition that tells them apart may be missing. Equal entries are not always repeated.

The T/C is the ratio of treated to control.

The test system of the experiment is Swiss mice, Sarcoma 180 sc, mean tumor weight T/C. As to the kind of experiment: NCI In Vivo Anticancer Drug Screen. Data for tumor model Sarcoma 180 (subcutaneous) in Swiss mice. Particulars: endpoint: mean tumor weight, higher = larger tumour. In outline:
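Transplantable tumors were established in mice, compound was given, then survival or tumor size was recorded. The treated value was divided by the vehicle-control value.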

[1] abbreviates: dose: 250.0 mg/kg/injection, schedule: Q#A X014 (ip), vehicle: carboxymethylcellulose (CMC).

As to `[N-]=[N+]=CC(=O)NCC(=O)NN`, the T/C reads like this: (dose: 400.0 mg/kg/injection, schedule: Q01DX007 (ip), vehicle: water) 45 % of control; (dose: 450.0 mg/kg/injection, schedule: Q01DX007 (ip), vehicle: other) 43 % of control; (dose: 500.0 mg/kg/injection, schedule: Q01DX007 (ip), vehicle: other) 50 % of control; (dose: 600.0 mg/kg/injection, schedule: Q01DX007 (ip), vehicle: water) 34 % of control.
Consider `O=c1[nH]cc(N(CCCl)CCCl)c(=O)[nH]1`, for which the T/C runs as follows: (dose: 0.2 mg/kg/injection, schedule: Q01DX007 (ip), vehicle: carboxymethylcellulose (CMC)) 104 % of control; (dose: 0.31 mg/kg/injection, schedule: Q#A X014 (ip), vehicle: carboxymethylcellulose (CMC)) 51 % of control; (dose: 0.32 mg/kg/injection, schedule: Q#A X014 (ip), vehicle: carboxymethylcellulose (CMC)) 65 % of control; (dose: 0.4 mg/kg/injection, schedule: Q01DX007 (ip), vehicle: carboxymethylcellulose (CMC)) 88 % of control; (dose: 0.4 mg/kg/injection, schedule: Q#A X014 (ip), vehicle: carboxymethylcellulose (CMC)) 67 % of control; (dose: 0.53 mg/kg/injection, schedule: Q#A X014 (ip), vehicle: carboxymethylcellulose (CMC)) 67 % of control. Further, the T/C was 32 % of control (dose: 0.62 mg/kg/injection, schedule: Q#A X014 (ip), vehicle: carboxymethylcellulose (CMC)); 85 % of control (dose: 0.64 mg/kg/injection, schedule: Q01DX007 (ip), vehicle: carboxymethylcellulose (CMC)); 85 % of control (dose: 0.75 mg/kg/injection, schedule: Q01DX007 (ip), vehicle: saline); 62 % of control and 76 % of control (dose: 0.8 mg/kg/injection, schedule: Q01DX007 (ip), vehicle: carboxymethylcellulose (CMC)); 41 % of control (dose: 0.8 mg/kg/injection, schedule: Q#A X014 (ip), vehicle: carboxymethylcellulose (CMC)); 51 % of control (dose: 1.06 mg/kg/injection, schedule: Q01DX007 (ip), vehicle: carboxymethylcellulose (CMC)). Moreover, the T/C by setting is: (dose: 1.5 mg/kg/injection, schedule: Q01DX007 (ip), vehicle: saline) 60 % of control; (dose: 1.5 mg/kg/injection, schedule: Q#A X014 (ip), vehicle: alkali diluted with saline) 21 % of control; (dose: 1.6 mg/kg/injection, schedule: Q01DX007 (ip), vehicle: carboxymethylcellulose (CMC)) 21 % of control.
Consider `C[C@]12CCC(=O)C=C1CC[C@@H]1[C@@H]2[C@@H](O)C[C@@]2(C)[C@H]1CC[C@]2(O)C(=O)CF`, for which the T/C was 55 % of control (dose: 25.0 mg/kg/injection, schedule: Q#A X014 (sc), vehicle: steriod suspending solution); 43 % of control (dose: 125.0 mg/kg/injection, schedule: Q#A X014 (sc), vehicle: steriod suspending solution); 36 % of control (dose: 148.0 mg/kg/injection, schedule: Q01DX007 (sc), vehicle: steriod suspending solution); 26 % of control (dose: 222.0 mg/kg/injection, schedule: Q01DX007 (sc), vehicle: saline); 19 % of control (dose: 222.0 mg/kg/injection, schedule: Q01DX007 (sc), vehicle: steriod suspending solution); 43 % of control (dose: 250.0 mg/kg/injection, schedule: Q#A X014 (sc), vehicle: steriod suspending solution). The T/C reads like this: (dose: 333.0 mg/kg/injection, schedule: Q01DX007 (sc), vehicle: saline) 25 % of control; (dose: 500.0 mg/kg/injection, schedule: Q01DX007 (sc), vehicle: saline) 21 % of control; (dose: 750.0 mg/kg/injection, schedule: Q01DX007 (sc), vehicle: saline) 20 % of control; (dose: 1125.0 mg/kg/injection, schedule: Q01DX007 (sc), vehicle: steriod suspending solution) 13 % of control.
With `O=S(=O)(O)c1cccnc1`, the T/C by setting is: (dose: 17.47 mg/kg/injection, schedule: Q#A X014 (ip), vehicle: carboxymethylcellulose (CMC)) 70 % of control; (dose: 31.25 mg/kg/injection, schedule: Q#A X014 (ip), vehicle: carboxymethylcellulose (CMC)) 64 % of control; (dose: 34.94 mg/kg/injection, schedule: Q#A X014 (ip), vehicle: carboxymethylcellulose (CMC)) 80 % of control; (dose: 62.5 mg/kg/injection, schedule: Q#A X014 (ip), vehicle: carboxymethylcellulose (CMC)) 105 % of control; (dose: 69.87 mg/kg/injection, schedule: Q#A X014 (ip), vehicle: carboxymethylcellulose (CMC)) 89 % of control; (dose: 125.0 mg/kg/injection, schedule: Q#A X014 (ip), vehicle: carboxymethylcellulose (CMC)) 63 % of control. In addition, the T/C reads like this: (dose: 139.75 mg/kg/injection, schedule: Q#A X014 (ip), vehicle: carboxymethylcellulose (CMC)) 97 % of control; under setting [1], 124 % of control.
As to `O=C(NCCCCCCCCCCNC(=O)N1CC1)N1CC1`, the T/C is 66 % of control and 83 % of control (dose: 0.9 mg/kg/injection, schedule: Q01DX007 (ip), vehicle: carboxymethylcellulose (CMC)); 70 % of control (dose: 0.9 mg/kg/injection, schedule: Q01DX007 (ip), vehicle: saline); 64 % of control and 65 % of control (dose: 1.3 mg/kg/injection, schedule: Q01DX007 (ip), vehicle: carboxymethylcellulose (CMC)); 67 % of control (dose: 1.3 mg/kg/injection, schedule: Q01DX007 (ip), vehicle: saline); 35 % of control and 43 % of control (dose: 2.0 mg/kg/injection, schedule: Q01DX007 (ip), vehicle: carboxymethylcellulose (CMC)); 48 % of control (dose: 2.0 mg/kg/injection, schedule: Q01DX007 (ip), vehicle: saline). Further, the T/C (dose: 3.0 mg/kg/injection, schedule: Q01DX007 (ip), vehicle: carboxymethylcellulose (CMC)) is 10 % of control and 21 % of control; the T/C (dose: 3.0 mg/kg/injection, schedule: Q01DX007 (ip), vehicle: saline) is 34 % of control; the T/C (dose: 4.0 mg/kg/injection, schedule: Q01DX007 (ip), vehicle: carboxymethylcellulose (CMC)) was 38 % of control.
Turning to `[Cu+2].[O-]c1ccc(Br)c2cccnc12.[O-]c1ccc(Br)c2cccnc12`, the T/C was 71 % of control (dose: 4.2 mg/kg/injection, schedule: Q01DX007 (ip), vehicle: carboxymethylcellulose (CMC)); 66 % of control (dose: 6.2 mg/kg/injection, schedule: Q01DX007 (ip), vehicle: carboxymethylcellulose (CMC)); 63 % of control (dose: 14.0 mg/kg/injection, schedule: Q01DX007 (ip), vehicle: other); 39 % of control (dose: 21.0 mg/kg/injection, schedule: Q01DX007 (ip), vehicle: other); 26 % of control (dose: 32.0 mg/kg/injection, schedule: Q01DX007 (ip), vehicle: other).
Regarding `CCOC(=O)CCCc1ccc(N/N=N/c2nc[nH]c2C(N)=O)cc1`, the T/C (dose: 46.0 mg/kg/injection, schedule: Q01DX007 (ip), vehicle: carboxymethylcellulose (CMC)) was 79 % of control and 80 % of control; the T/C (dose: 187.0 mg/kg/injection, schedule: Q01DX007 (ip), vehicle: carboxymethylcellulose (CMC)) was 46 % of control; the T/C (dose: 250.0 mg/kg/injection, schedule: Q01DX007 (ip), vehicle: carboxymethylcellulose (CMC)) is 39 % of control.
Take `CCCCCCCCCCCCO[P+](=O)OCCCCCCCCCCCC`: the T/C was 111 % of control (dose: 100.0 mg/kg/injection, schedule: Q01DX007 (ip), vehicle: carboxymethylcellulose (CMC)); 45 % of control (dose: 111.0 mg/kg/injection, schedule: Q#A X014 (ip), vehicle: carboxymethylcellulose (CMC)); 47 % of control and 71 % of control (dose: 222.0 mg/kg/injection, schedule: Q01DX007 (ip), vehicle: carboxymethylcellulose (CMC)); 25 % of control under setting [1]; 32 % of control (dose: 300.0 mg/kg/injection, schedule: Q01DX007 (ip), vehicle: carboxymethylcellulose (CMC)); 63 % of control and 65 % of control (dose: 333.0 mg/kg/injection, schedule: Q01DX007 (ip), vehicle: carboxymethylcellulose (CMC)). Moreover, the T/C was 20 % of control (dose: 375.0 mg/kg/injection, schedule: Q#A X014 (ip), vehicle: carboxymethylcellulose (CMC)); 42 % of control and 50 % of control (dose: 500.0 mg/kg/injection, schedule: Q01DX007 (ip), vehicle: carboxymethylcellulose (CMC)); 12 % of control (dose: 750.0 mg/kg/injection, schedule: Q01DX007 (ip), vehicle: carboxymethylcellulose (CMC)).

These data come from PubChem BioAssay AID342 (DTP/NCI, 2004).
